Results: US10342794B2, “Substituted imidazo[1,2-a]pyrazines as Syk inhibitors” (Gilead Sciences, Inc., priority 2013, dated 2019)

Tests used:
[1] = system: basophils in human whole blood (CD63 expression); assay: 384-Well HTBS Whole Blood CD63 Basophil Assay (25% blood); assay type: cell-based; details: for IC50: comparison table with known compounds, human whole blood basophils, head prints IC50; for EC50: human whole blood (25% blood), anti-FceRI mAb activation, CD63 on CCR3 positive cells
Method: Syk activity was assessed in relation to reduced activation of basophils as measured by the expression of CD63 in a human whole blood basophil cellular assay (25% blood). Basophil activation was measured in human whole blood using the Flow CAST kit (Buhlmann Laboratories AG, Baselstrasse, Switzerland) following the protocol provided by the manufacturer with minor modifications. Fresh human whole blood in heparin was collected and delivered same day (AllCells, Emeryville, Calif.). Whole blood samples were incubated with either DMSO (1% final) or serial diluted compounds in DMSO for 60 minutes at 37° C. Basophils were activated using the anti-FceRI mAb and stained with anti-CD63-FITC and anti-CCR3-PE for 20 minutes at 37° C. (per well: 50 μL of whole blood was mixed with 113 μL of stimulation buffer, 8.5 μL anti-FceRI mAb, 8.5 μL Ab stain CCR3-PE/CD63-FITC). Cells were centrifuged at 1000×g for 18 minutes and 150 μL/well of supernatant removed. Red blood cells were lysed and cells fixed by 2 rounds of cell lysing: resuspending cell pellets with 150 μL/well 1× lysis buffer, incubating at room temperature for 10 minutes, and collecting cell pellets by centrifuging for 1200 rpms for 5 minutes. Cells were washed with 150 µL/well wash buffer twice, and resuspended in a final volume of 75 µL/well of wash buffer for either immediate flow cytometery analysis or overnight incubation at 4° C. followed by flow cytometry analysis. Degranulation (basophil activation) was detected by CD63 surface expression on CCR3 positive cells. The percent CD63 positive cells within the gated basophil population were determined and normalized to the DMSO (negative control) and control compound (positive control).

human hepatocytes = assay: Human Hepatocyte Stability Assay (predicted hepatocyte clearance); assay type: in vitro ADME
Method: The human […] stability of the compounds as predicted hepatocyte clearance in L/hr/kg was assessed. Compounds to be tested were diluted to 200 μM (4 μl of 10 mM DMSO stock into 196 μl ACN:H2O (50:50). Propranolol was used as a positive control, and buffer only without hepatocytes as 0% control. These were further diluted 4 μl with 891 μl KHB buffer (InVitroGRO catalog number Z99074) to provide 2× dosing solution. To each well of 24 well plate, 250 μl of the 2× dosing solution was added to each well with 250 μl of hepatocytes cells (1×10^6 viable cells/ml per well) or KHB for control samples to achieve a final compound concentration of 1 μM during incubation. The final solvent concentration was 0.01% DMSO and 0.25% ACN. The culture plate was placed on a rocker and incubated at 37° C., 5% CO2. Samples were collected at time 0, 1, 3, and 6 hours. The loss of parent compound was determined using LC-MS methods against a standard curve.

[2] = comparison table with known compounds, predicted hepatocyte clearance (L/hr/kg)
[3] = predicted hepatocyte clearance, human hepatocytes, 1 μM compound, 0-6 hours

Structure (SMILES)	IC50 [1]	Hheps CL (human hepatocytes; [2])	EC50 [1]	Hheps CL (human hepatocytes; [3])
COc1ccc(Nc2nc(-c3cccc(N)c3)cn3ccnc23)cc1OC [6-(3-aminophenyl)-N-(3,4-dimethoxyphenyl)imidazo[1,2-a]pyrazin-8-amine, reference compound]	809 nM	4 mL/min/kg		
Cc1ncc(-c2cn3ccnc3c(Nc3ccc(N4CCOCC4)cc3)n2)cc1N [6-(5-amino-6-methylpyridin-3-yl)-N-(4-morpholinophenyl)imidazo[1,2-a]pyrazin-8-amine, reference compound]	250 nM	13.3 mL/min/kg		

Stronger by IC50 [1], values ahead:

IC50 [1]	Hheps CL (human hepatocytes; [2])	EC50 [1]	Hheps CL (human hepatocytes; [3])	Structure (SMILES)
157 nM	1.3 mL/min/kg	157 nM	1.3 mL/min/kg	Cc1c(-c2cncc(N)n2)nc(Nc2ccc(N3CCN(C4COC4)CC3)cc2)c2nccn12 [Ex.-4, 6-(6-aminopyrazin-2-yl)-5-methyl-N-(4-(4-(oxetan-3-yl)piperazin-1-yl)phenyl)imidazo[1,2-a]pyrazin-8-amine]
128 nM	1.3 mL/min/kg	128 nM	1.3 mL/min/kg	Nc1cncc(-c2cn3ccnc3c(Nc3ccc(N4CCN(CC(CO)CO)CC4)cc3)n2)n1 [Ex.-6, 2-((4-(4-((6-(6-aminopyrazin-2-yl)imidazo[1,2-a]pyrazin-8-yl)amino)phenyl)piperazin-1-yl)methyl)propane-1,3-diol]
120 nM	1.2 mL/min/kg	120 nM	1.2 mL/min/kg	Nc1cncc(-c2cn3ccnc3c(Nc3ccc(N4CCN(C5COC5)CC4)c(OCCO)c3)n2)n1 [Ex.-5, 2-(5-((6-(6-aminopyrazin-2-yl)imidazo[1,2-a]pyrazin-8-yl)amino)-2-(4-(oxetan-3-yl)piperazin-1-yl)phenoxy)ethanol]
63 nM	1.5 mL/min/kg	63 nM	1.5 mL/min/kg	Nc1cncc(-c2cn3ccnc3c(Nc3ccc(N4CCO[C@@H](CO)C4)cc3)n2)n1 [Ex.-3, (R)-(4-(4-((6-(6-aminopyrazin-2-yl)imidazo[1,2-a]pyrazin-8-yl)amino)phenyl)morpholin-2-yl)methanol]
